Results on one compound are retold here after patent US11590117B2, “Treatment of a hematologic malignancy with 2-(4-chlorophenyl)-n-((2-(2,6-dioxopiperidin-3-yl)-1-oxoisoindolin-5-yl)methyl)-2,2-difluoroacetamide” (priority 2016, dated 2023).

Holding throughout (assay type): cell-based, human
The test system of one test is HNT-34 cells and PBMCs. As to the kind of experiment: JC-1 mitochondrial membrane potential assay. To be noted: HNT-34 cells over non-pre-activated PBMCs; 0.1 μM Compound 1; 72 hours.
In the next test the test system is THLE-2. As to the kind of experiment: CellTiter-Glo (CTG) cell proliferation assay, 72 hours, counter-screen. As for the experimental part:
Preparation of Solutions of Test Article: Compounds were plated into black 384-well plates (Corning Inc.) to a final DMSO volume of 0.1% assuming a maximal volume of 50 μL. A 10-point dose response starting at 10 μM with a 1:3 dilution was printed in duplicate by acoustic dispense using the EDC ATS-100 platform.
Cell Proliferation Assays: The effect of Compound 1 on the proliferation/viability of the hematological cell lines (Table 1 Table, Table 2 and Table 3), THLE-2, or PBMCs was assessed after 72 hours incubation using CTG (Promega), according to manufacturer's instructions. Hematological cell lines were dispensed into compound plates by a Multidrop™ Combi Reagent Dispenser (Thermo Scientific, Waltham, Mass.) at a concentration of 0.1 to 0.3×10^6 cells per mL in a 50 μL total volume. THLE-2 cells were seeded out at 1000 cells per well in 50 μL volume and incubated for 72 hours. At 72 hours, 25 μL per well of CTG was dispensed by a Multidrop™ Combi Reagent Dispenser and adenosine triphosphate (ATP) release by viable cells was measured as relative luminescence units after 30 minutes using the Envision platform.
In order to calculate the therapeutic window for Compound 1, the compound was counter-screened against the immortalized (but non-tumorigenic) human hepatocyte-derived cell line THLE-2 (Pfeifer, et al, Proc Natl Acad Sci USA 1993 90(11):5123-5127) and against primary human PBMCs. […] The Compound 1 therapeutic window for the 10 sensitive AML cell lines as compared to THLE-2 cells ranged from 4.1 (KG-1a) to 57 (HNT-34) (method 1) or from 5.7 (KG-1a) to 79.5 (HNT-34) (method 2); the Compound 1 therapeutic window as compared to PBMCs ranged from 2.6 (KG-1a) to 36 (HNT-34)), or from 1.5 (KG-1a) to 21 (HNT-34) (Table 6).
Cultures of 11 different AML cell lines were incubated 72 hours with Compound 1 at concentrations of 0.5 nM to 10 μM. Proliferation was assessed using the CellTitre-Glo® assay. Results for cultures incubated with Compound 1 were normalized to results for control cultures for each cell line. […]

The next test has as its system OCI-AML3. As to the kind of experiment: Annexin V/7-AAD flow cytometry apoptosis assay. To be noted: OCI-AML3 (Compound 1-insensitive AML line). The protocol:
(§1) Cell Apoptosis Assays: The ability of Compound 1 to induce apoptosis was assessed in selected AML cell lines and healthy PBMCs at the time points and compound concentrations indicated. For Annexin V/7-AAD readout by flow cytometry, AML cell lines were plated into flat bottom 96-well plates (BD Falcon) at a seeding density of 0.1 to 0.3×10^6 cells per mL in 200 μL complete media. Compound 1 was dispensed onto the plates and the cells were incubated for the times indicated. For frozen PBMCs, cells were thawed as previously described and plated at a seeding density of 1×10^6 cells per mL in 200 μL on Corning® BioCoat™ T-Cell Activation Anti-Human CD3 96-well plates (Corning Inc., Corning, N.Y.). Compound 1 was dispensed onto the plates and the cells were incubated for the times indicated. […] One hundred microliters of Annexin V/7-AAD buffer was added per well and the cells incubated for 15 minutes before being analyzed using the Attune Flow Cytometer (Life Technologies, Carlsbad, Calif.). For caspase 3/7 activity, the remaining 100 μL was incubated with CellEvent™ Caspase-3/7 Green ReadyProbes® Reagent (1:1000 dilution; Molecular Probes) for 15 minutes before being analyzed using the Attune Flow Cytometer. […]
(§2) Compound 1 Induces Apoptosis in Acute Myeloid Leukemia Cell Lines. […] 0.01 μM and 0.1 μM and apoptosis was assessed over time.
In general terms: Flow cytometry measures light scatter and fluorescence of single cells or particles in a stream.

The next test has as its system selected AML cell lines. Description: Annexin V/7-AAD flow cytometry apoptosis assay, panel of selected AML cell lines. The conditions noted are these: after 24 and 48 hours, in 4 out of the 5 cell lines evaluated. As for the experimental part:
as §1, §2

The mark [1] stands for this setting: THLE-2 normal cells, 0.1 nM to 100 μM.

As a reminder, the IC50 is the concentration that inhibits the measured activity by half.

As for `O=C1CCC(N2Cc3cc(CNC(=O)C(F)(F)c4ccc(Cl)cc4)ccc3C2=O)C(=O)N1` (stereo not drawn) [Compound 1, 2-(4-chlorophenyl)-N-((2-(2,6-dioxopiperidin-3-yl)-1-oxoisoindolin-5-yl)methyl)-2,2-difluoroacetamide], the “difference in increase of membrane depolarization” value with HNT-34 cells and PBMCs is given as roughly 7 fold. In addition, the IC50 in the test on THLE-2 (Homo sapiens, THLE-2, 72 h, THLE-2 non-tumorigenic human hepatocyte-derived cell line, 72 hours, read-out: antiproliferative IC50) was determined as 10 µM. The “AUC Method 1” value with THLE-2 (setting [1]) is reported as 393.0 arbitrary units. In the test on THLE-2 (setting [1]), the “AUC Method 2” value is reported as 549.1 arbitrary units. Moreover, the induction of apoptosis result is given as “did not induce apoptosis” with OCI-AML3 and “marked induction of apoptosis” in the test on selected AML cell lines.
